The subject of one assay is IL-23 (p19/p40). Description: IL23-p19 ELISA, dendritic cells (DC differentiated from human PBMC, IFNγ primed), LPS stimulated. The format is cell-based. The conditions noted are these: Dendritic cell, human PBMC-derived dendritic cells, 1 h compound pre-incubation, LPS 1 μg/ml 18 hours, 10 pt. The protocol: Compound Screening Using DC Cells
I. Differentiation of PBMC's to DC Cells:
After 2 hours, the media including floating cells was aspirated out carefully and 12 ml of fresh RPMI media (10% FBS) containing GMCSF (100 ng/ml) and IL4 (20 ng/ml) was added, and the flask was kept in a 37° C. incubator for 7 days.
After 3 days, fresh GMCSF (100 ng/ml) and IL4 (20 ng/ml) were added to the flask and the incubation continued. After 7 days, the fully differentiated cells were harvested by spinning down (1200 rpm/5 min) and aspirating the media. The cells were suspended in fresh RPMI media (10% FBS) containing 50 ng/ml IFNγ (1000 U/ml) and then plated (50K/well in 100 μl) onto a white clear bottom 96 well plate and left in a 37° C. incubator for 24 hours.
II. Addition of Compounds:
After 24 hours incubation, 100 μl of RPMI media was added containing 2× concentrated test compound per well to the above cell-culture media (final concentration becomes 1×) and the plates were pre-incubated for 1 hour at 37° C. before stimulating with LPS.
The mixture was shaken and incubated the plates at 37° C. for an additional 18 hours.
155 μl of the supernatant was harvested from each well carefully (without the tip touching the bottom of the well) and to the remaining 50 μl/well of the cell culture plate was added 50 μl of Cell Titer Glo reagent. The mixture was incubated for 1-2 minutes on a shaker and the plate was read for luminescence intensity to determine the compound cytotoxicity. The cell culture supernatant collected above was used to carry out IL23 ELISA (65 μl—Supernatant) and IL10 ELISA (90 μl—Supernatant) as described below.
Human IL-23 (p19/p40) ELISA Protocol (e-Biosciences)
To 10.5 ml PBS add 50 μl of anti-IL23 (p19) was added capture antibody (2.5 μg/ml). The mixture was mixed well and 100 μl of the coating solution was added to each well of the 96 well white plates from Pierce. The wells were covered and incubated overnight at 4° C.
The anti-IL23 (p19)-antibody-coated plates were washed 2× using TBST (use plate washer) and blocked using 200 μl of 0.5% Casein for 1.5-2 hours at room temperature with shaking.
Addition of Supernatant and Detection:
The plates were washed 2× using TBST and the supernatant was transferred (65 μl/well) to the above pre-blocked/IL23(p19)-antibody-coated 96 well plate, and incubated at room temperature for 1.5 hours with shaking.
The plates were washed 4× using TBST (plate washer) and 100 μl/well detection antibody solution prepared from 2 μl of biotin labeled anti-IL-12 (p40/p70) antibody in 11 ml 1% BSA/PBS solution (1-5000 dilution) was added. The plates were incubated for 1 hour with shaking at Room temperature.
Again, the plates were washed 4× with TBST and 100 μl of HRP labeled Streptavidin (R&D Systems) solution (10 μl/10 ml 1% BSA solution) was added, and the plates were incubated at room temperature for another 45 minutes with shaking.
After 45 minutes, the plates were washed with TBST 4× and 100 μl/well Super Signal ELISA Pico Chemiluminescent Substrate from Pierce (3.5 ml A+3.5 ml B+3.5 ml MQ water) was added. The plates were shaken for 1-2 minutes then read on a plate reader.
For orientation: In an ELISA, binding on a coated surface is turned into a signal by an enzyme label.

For another assay, the system named is IL-23p19. The experiment in a line: LPS Induced IL23p19 in THP-1 Cells (with IFNγ Primed) Assay. The class given is cell-based, human. Particulars: Homo sapiens, THP-1, THP-1 cells, IFNγ (50 ng/mL) primed, 1 hour compound pre-incubation, LPS 1 ug/mL 18 hours, 10 pt; read-out: IL23-p19 ELISA, THP1-IFNy, LPS, 10 pt EC50. Here is the method: LPS Induced IL23p19 in THP-1 Cells (with IFNγ Primed) Assay
Method THP-1 Cells Stimulation:
On day 1, 50K/well THP-1 cells were seeded and primed with IFNγ (50 ng/mL) in 384-well plates for about 18 hours in RPMI media with 10% FBS. […] 50 μL/well 2× compound was added to 50 μL/well THP-1 cells (with IFNγ primed) in duplicate in 384 well tissue culture plates. […] Day 3, after stimulation for 18 hours at 37° C., 5% CO2, the assay plate was centrifuged and 70 μL/well supernatant was harvested. IL-23p19 protein in 70 μL/well of supernatant was measured by sandwich ELISA, and 25 μl/well Cell Titer Glo reagent was added to the remaining cells to measure compound toxicity.
Human IL-23p19 Sandwich ELISA:
Maxisorp immuno ELISA plates were pre-coated with 25 μL/well of anti-IL-23p19 capture antibody (2.5 ug/mL) in PBS overnight at room temperature. After washing with 1×PBST, the plates were blocked using 100 μL/well of 1% BSA in PBS for 2 hours at room temperature. The plates were washed three times with 1×PBST and 70 μL/well supernatant were added. The plates were incubated at room temperature for 2 hours with shaking and washed three times with 1×PBST. 25 μL/well of biotin labeled anti-IL-12(p40/p70) detection antibody (100 ng/mL) in PBS with 1% BSA was added and the plates were incubated at room temperature for 2 hours with shaking. After washing three times with 1×PBST, 25 μL/well of streptavidin-HRP (1:200) in PBS with 1% BSA was added and the plates were incubated at room temperature for 20 minutes with shaking. The plates were washed three times with 1×PBST and 25 μL/well of Super Signal ELISA Pico Chemiluminescent Substrate were added. The plates were read with a luminometer, and the chemiluminescence values were entered into Athena (Rigel) for curve fitting, EC50 calculation, and database storage.

Counter-ions that a name gives are not always drawn.

One may read the EC50 as the midpoint of the concentration-response curve. Regarding `Cn1cc(NC(=O)c2cccc(-c3cccnc3)n2)c(-c2ccccn2)n1` [Compound I-2, N-(1-methyl-3-(pyridin-2-yl)-1H-pyrazol-4-yl)-[2,3′-bipyridine]-6-carboxamide], the results for the EC50 in the assay with IL-23 (p19/p40) and in the assay on IL-23p19 were 2.72 µM and 1.26 µM, respectively.
`Cn1cc(NC(=O)c2cccc(-c3ccn[nH]3)n2)c(-c2ccccn2)n1` [Compound I-6, N-(1-methyl-3-(pyridin-2-yl)-1H-pyrazol-4-yl)-6-(1H-pyrazol-5-yl)picolinamide]: the EC50 in the assay on IL-23 (p19/p40) amounted to 0.162 µM; in the assay on IL-23p19, 0.536 µM.
As for `Cc1cc(-c2cccc(C(=O)Nc3cn(C)nc3-c3ccccn3)n2)[nH]n1` [Compound I-7, 6-(3-methyl-1H-pyrazol-5-yl)-N-(1-methyl-3-(pyridin-2-yl)-1H-pyrazol-4-yl)picolinamide], the half-maximal effective concentration (EC50) was 0.354 µM in the assay with IL-23 (p19/p40) and 0.533 µM with IL-23p19.
As for `Cn1cc(-c2cccc(C(=O)Nc3cn(C)nc3-c3ccccn3)n2)cn1` [Compound I-8, 6-(1-methyl-1H-pyrazol-4-yl)-N-(1-methyl-3-(pyridin-2-yl)-1H-pyrazol-4-yl)picolinamide], the half-maximal effective concentration (EC50) worked out at 2.42 µM with IL-23 (p19/p40) and 1.7 µM in the assay with IL-23p19.
Turning to `Cn1cc(NC(=O)c2cccc(-c3cn[nH]c3)n2)c(-c2ccccn2)n1` [Compound I-9, N-(1-methyl-3-(pyridin-2-yl)-1H-pyrazol-4-yl)-6-(1H-pyrazol-4-yl)picolinamide], the EC50 in the assay on IL-23 (p19/p40) is 0.178 µM; in the assay with IL-23p19, 0.281 µM.
For the molecule `Cn1cc(NC(=O)c2cccc(-c3cc[nH]c3)n2)c(-c2ccccn2)n1` [Compound I-11, N-(1-methyl-3-(pyridin-2-yl)-1H-pyrazol-4-yl)-6-(1H-pyrrol-3-yl)picolinamide], the EC50 in the assay with IL-23 (p19/p40) is 4.12 µM; with IL-23p19 it was 5.9 µM.
As for `Cc1cncc(-c2cccc(C(=O)Nc3cn(C)nc3-c3ccccn3)n2)c1` [Compound I-12, 5′-methyl-N-(1-methyl-3-(pyridin-2-yl)-1H-pyrazol-4-yl)-[2,3′-bipyridine]-6-carboxamide], the EC50 in the assay on IL-23 (p19/p40) was 0.106 µM; in the assay with IL-23p19, 0.25 µM.
Consider `Cn1cc(NC(=O)c2cccc(-c3cncc(C4CC4)c3)n2)c(-c2ccccn2)n1` [Compound I-13, 5′-cyclopropyl-N-(1-methyl-3-(pyridin-2-yl)-1H-pyrazol-4-yl)-[2,3′-bipyridine]-6-carboxamide], for which the 50% effective concentration (EC50) with IL-23 (p19/p40) turned out to be 0.531 µM; in the assay on IL-23p19, 1.34 µM.
For `Cc1ccc(-c2cccc(C(=O)Nc3cn(C)nc3-c3ccccn3)n2)cn1` [Compound I-16, 6′-methyl-N-(1-methyl-3-(pyridin-2-yl)-1H-pyrazol-4-yl)-[2,3′-bipyridine]-6-carboxamide], the EC50 was determined as 1.2 µM in the assay with IL-23 (p19/p40) and 6.35 µM in the assay with IL-23p19.
For `COc1cncc(-c2cccc(C(=O)Nc3cn(C)nc3-c3ccccn3)n2)c1` [Compound I-19, 5′-methoxy-N-(1-methyl-3-(pyridin-2-yl)-1H-pyrazol-4-yl)-[2,3′-bipyridine]-6-carboxamide] the same measures were 5.63 µM and 2.54 µM.
For `CC(C)Oc1cncc(-c2cccc(C(=O)Nc3cn(C)nc3-c3ccccn3)n2)c1` [Compound I-22, 5′-isopropoxy-N-(1-methyl-3-(pyridin-2-yl)-1H-pyrazol-4-yl)-[2,3′-bipyridine]-6-carboxamide], the EC50 with IL-23 (p19/p40) was 8.56 µM.
In the case of `Cn1cc(NC(=O)c2cccc(-c3cncc(OC4CCOCC4)c3)n2)c(-c2ccccn2)n1` [Compound I-23, N-(1-methyl-3-(pyridin-2-yl)-1H-pyrazol-4-yl)-5′-((tetrahydro-2H-pyran-4-yl)oxy)-[2,3′-bipyridine]-6-carboxamide], the EC50 in the assay with IL-23 (p19/p40) worked out at 1.79 µM; with IL-23p19, 2.29 µM.
In the case of `Cn1cc(NC(=O)c2cccc(-c3cncc(N)c3)n2)c(-c2ccccn2)n1` [Compound I-25, 5′-amino-N-(1-methyl-3-(pyridin-2-yl)-1H-pyrazol-4-yl)-[2,3′-bipyridine]-6-carboxamide], the figures for the EC50 with IL-23 (p19/p40) and with IL-23p19 were 0.0347 µM and 0.169 µM, respectively.
In the assay on IL-23 (p19/p40), `COCCNc1cncc(-c2cccc(C(=O)Nc3cn(C)nc3-c3ccccn3)n2)c1` [Compound I-31, 5′-((2-methoxyethyl)amino)-N-(1-methyl-3-(pyridin-2-yl)-1H-pyrazol-4-yl)-[2,3′-bipyridine]-6-carboxamide] returned a concentration for a half-maximal effect (EC50) of 0.413 µM.
Take `Cn1cc(NC(=O)c2cccc(-c3cncc(C(N)=O)c3)n2)c(-c2ccccn2)n1` [Compound I-40, N6-(1-methyl-3-(pyridin-2-yl)-1H-pyrazol-4-yl)-[2,3′-bipyridine]-5′,6-dicarboxamide]: the concentration giving a half-maximal response (EC50) with IL-23 (p19/p40) was determined as 2.99 µM.
Same read-out and setting: to `Cn1cc(NC(=O)c2cccc(-c3ccccc3)n2)c(-c2ccccn2)n1` [Compound I-48, N-(1-methyl-3-(pyridin-2-yl)-1H-pyrazol-4-yl)-6-phenylpicolinamide] belongs 9.16 µM; to `CC(C)Oc1cncc(-c2cccc(C(=O)Nc3cn(C4COC4)nc3-c3ccccn3)n2)c1` [Compound I-130, 5′-isopropoxy-N-(1-(oxetan-3-yl)-3-(pyridin-2-yl)-1H-pyrazol-4-yl)-[2,3′-bipyridine]-6-carboxamide], 1.65 µM.
The molecule `COCCOCCn1cc(NC(=O)c2cccc(Nc3cc(C)ncc3C)n2)c(-c2ccccn2)n1` [Compound I-157, 6-((2,5-dimethylpyridin-4-yl)amino)-N-(1-(2-(2-methoxyethoxy)ethyl)-3-(pyridin-2-yl)-1H-pyrazol-4-yl)picolinamide formate] had a concentration giving a half-maximal response (EC50) with IL-23 (p19/p40) of 10.9 µM.
For the molecule `O=C(Nc1cn(C2CCOCC2)nc1-c1ccccn1)c1cccc(-c2ccncc2)n1` [Compound I-167, N-(3-(pyridin-2-yl)-1-(tetrahydro-2H-pyran-4-yl)-1H-pyrazol-4-yl)-[2,4′-bipyridine]-6-carboxamide], the EC50 with IL-23 (p19/p40) was found to be 6.5 µM.
On the same count and under the same terms, under `Cn1cc(NC(=O)c2cccc(-c3cn[nH]c3)n2)c(-c2ccc(N3CCOCC3)cn2)n1` [Compound I-171, N-(1-methyl-3-(5-morpholinopyridin-2-yl)-1H-pyrazol-4-yl)-6-(1H-pyrazol-4-yl)picolinamide] stands 2.38 µM; under `Cn1cc(NC(=O)c2cccc(-c3cc[nH]n3)n2)c(-c2ccc(N3CCOCC3)cn2)n1` [Compound I-172, N-(1-methyl-3-(5-morpholinopyridin-2-yl)-1H-pyrazol-4-yl)-6-(1H-pyrazol-3-yl)picolinamide], 0.0468 µM.
